{"source": "patent US20110172163A1", "about": "“Novel Protease Inhibitors” (QUEENSLAND UNIVERSITY OF TECHNOLOGY, priority 2008, published 2011)", "key": {"KLK5": {"biological_target": "KLK5 (Homo sapiens, UniProt Q9Y337)", "sequence (Q9Y337 23-293)": "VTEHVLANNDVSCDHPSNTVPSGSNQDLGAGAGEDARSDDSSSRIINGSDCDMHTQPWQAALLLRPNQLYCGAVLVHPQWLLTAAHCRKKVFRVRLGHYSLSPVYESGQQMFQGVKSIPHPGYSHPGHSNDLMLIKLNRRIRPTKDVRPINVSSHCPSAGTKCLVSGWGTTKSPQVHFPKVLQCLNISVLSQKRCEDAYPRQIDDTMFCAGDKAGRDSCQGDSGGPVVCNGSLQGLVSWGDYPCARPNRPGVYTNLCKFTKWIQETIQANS", "assay": "Inhibitor kinetics: KLK5 amidolytic activity", "format": "biochemical", "conditions": "substrate Bz-PFR-pNA (0.2 mM)"}, "human PAR-2": {"system": "human PAR-2", "assay": "PAR-2 activating peptide stimulated calcium release in LMF stably expressing human PAR-2", "format": "cell-based", "experimental": "Lung murine fibroblasts (LMF) from Par-1 null mice stably expressing human PAR-2 were grown to 80% confluence as previously described, washed with PBS, detached nonenzymatically, resuspended (4×10^6 cells/ml) in extracellular medium (121 mM NaCl, 5.4 mM KCl, 0.8 mM MgCl2, 1.8 mM CaCl2, 5.5 mM glucose, 25 mM HEPES (pH 7.4)) containing 0.2% (w/v) bovine serum albumin (Sigma) and then loaded with the fluorescence indicator Fura-2 acetoxymethyl ester (1.0 μM; Invitrogen) at room temperature for 60 min. Cells were then pelleted followed by resuspension in extracellular medium (without bovine serum albumin) at a concentration of 2×10^6 cells/ml for fluorescence measurements. The ratio of fluorescence at 510 nm after excitation at 340 and 380 nm was monitored (Polarstar Optima fluorescent plate reader) during treatment with bovine β trypsin (Sigma Chemicals), PAR-2 activating peptide SLIGKV (AusPep) and iKLK4 with or without SFTI-FCQR."}, "[1]": {"assay": "Stability of SFTI variants in contact with prostate cancer cells in vitro", "format": "in vitro ADME", "conditions": "for half-life at 1 μM: RPMI 1640 with 10% fetal calf serum, read-out: t1/2 of residual inhibitory activity (converted)", "experimental": "Cell monolayers of LNCaP, 22Rv1 and PC3 cells were established in RPMI 1640 medium containing 10% fetal calf serum. Each cell line was treated +/−1 μM SFTI-FCQR contained in 4.0 mL RPMI media (as above) with a vehicle control to account for inhibition by intrinsic media factors. 25 μL samples of media were taken at 0, 24, 48, 72, 96 and 120 hrs timepoints. Media samples were boiled at 97° C. for 15 min, centrifuged at 14,000 rpm for 5 min to remove cellular debris and precipitated protein. Residual SFTI-FCQR inhibitory activity in the medium was determined against recombinant KLK4 using FVQR-pNA as a peptide substrate as above using 15ng KLK4 and 30 nmol FVQR-pNA with 2.5 μL and […] of media+/−SFTI-FCQR added from each treatment."}, "KLK4": {"biological_target": "KLK4 (Homo sapiens, UniProt Q9Y5K2)", "sequence (Q9Y5K2 31-254)": "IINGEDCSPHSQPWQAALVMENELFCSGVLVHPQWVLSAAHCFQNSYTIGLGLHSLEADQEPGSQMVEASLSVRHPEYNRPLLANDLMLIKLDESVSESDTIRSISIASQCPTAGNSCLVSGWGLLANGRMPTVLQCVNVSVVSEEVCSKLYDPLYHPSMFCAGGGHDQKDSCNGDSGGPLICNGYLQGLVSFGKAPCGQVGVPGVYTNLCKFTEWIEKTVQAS", "assay": "Inhibitor kinetics: KLK4 amidolytic activity with peptide-pNA substrates", "format": "biochemical", "design": "pro-region of PSA (KLK3), replacing the native KLK4 pro-region (N, cleaved yes); made in house", "experimental": "Human recombinant KLK4 was expressed in E. coli using a previously described chimeric KLK4 plasmid construct where the native pro-region was replaced with the pro-region of PSA, enabling autoactivation. Protein was expressed as inclusion bodies which were isolated and solubilised as described previously to yield 90% pure KLK4. Protein refolding was performed by dilution into 100 volumes of refolding buffer I (2 M urea, 0.1M NaCl, 5 mM GSH, 0.5 mM GSSG, 10 mM benzamidine, 50 mM tris HCl pH 8.0, 2 mM CaCl2) over 44 hours before further dilution into 3 volumes refolding buffer II (refolding buffer I with 0.5 M urea 0.5 mM GSH, 0.05 mM GSSG, 2 mM CaCl2) over another 24 hours. Dialysis was performed as previously described (with additional 2 mM CaCl2 to reduce aggregation) before concentration using UNO sphere Q (Biorad) eluting with tris buffered saline (pH 7.5)/2 mM CaCl2. Subsequently, the material was purified to apparent homogeneity (according to coomassie blue stained SDS PAGE) by gel filtration using Sephacryl S-200 (GE Health Care) pre-equilibrated with 50 mM Tris-HCl pH 7.5, 20 mM NaCl and 2 mM CaCl2.\nAll enzymes and substrates were obtained from Sigma Chemicals if not otherwise specified. Bacterially expressed human KLK4 (37 ng), bovine β-trypsin (20 ng), bovine thrombin (20 ng), bovine α-chymotrypsin (0.5 μg), protease (0.5 μg; Streptomyces griseus type XIV), bovine plasminogen (0.5 μg), and human matriptase (30 ng; R&D Systems) were incubated with various concentrations of inhibitors in 200 μL assay buffer for 10 minutes prior to initiation by the addition of 100 μL of 0.3 mM of peptide-pNA substrates (FVQR-pNA: KLK4; BAPNA: trypsin, (Streptomyces griseus Type XIV Protease and bovine plasma plasminogen); Bz-Phe-Val-Arg-pNA: thrombin and matriptase; Trp-pNA: α-chymotrypsin; Leu-pNA: (Streptomyces griseus Type XIV Protease and bovine plasma plasminogen). The release of pNa moiety was monitored as described above for 7 minutes with each point being the average of three independent triplicate reactions. IC50 was determined using the Prism 5 software suite (GraphPad software Inc.)."}, "human matriptase": {"biological_target": "T1, human matriptase (Homo sapiens, UniProt Q9Y5Y6)", "T1 construct": "purchased R&D Systems", "T1 sequence (Q9Y5Y6 615-855 limits assumed)": "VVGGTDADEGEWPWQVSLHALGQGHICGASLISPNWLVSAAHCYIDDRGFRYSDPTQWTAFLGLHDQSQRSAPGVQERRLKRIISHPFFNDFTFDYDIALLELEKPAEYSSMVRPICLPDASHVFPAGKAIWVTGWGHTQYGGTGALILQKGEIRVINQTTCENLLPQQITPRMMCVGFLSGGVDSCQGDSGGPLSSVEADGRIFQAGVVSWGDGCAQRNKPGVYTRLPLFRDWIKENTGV", "assay": "Inhibitor kinetics: matriptase amidolytic activity", "format": "biochemical", "conditions": "substrate Bz-FVR-pNA (0.2 mM)", "experimental": "All enzymes and substrates were obtained from Sigma Chemicals if not otherwise specified. […] The release of pNa moiety was monitored as described above for 7 minutes with each point being the average of three independent triplicate reactions. IC50 was determined using the Prism 5 software suite (GraphPad software Inc.)."}}, "note": "“Also recorded” adds a separate entry of the source. Where two headings read alike, the source gives them in different places. Bridge positions count the residues as written; N and C are the ends. Peptide text beside a SMILES is read from it.", "data": [{"smiles": "CC[C@H](C)[C@@H]1NC(=O)[C@@H]2CCCN2C(=O)[C@@H]2CCCN2C(=O)[C@H]([C@@H](C)CC)NC(=O)[C@H](CO)NC(=O)[C@H](CCCNC(=N)N)NC(=O)[C@H](CCC(N)=O)NC(=O)[C@@H]2CSSC[C@H](NC1=O)C(=O)N[C@@H](Cc1ccccc1)C(=O)N1CCC[C@H]1C(=O)N[C@@H](CC(=O)O)C(=O)NCC(=O)N[C@@H](Cc1ccccc1)C(=O)N2", "note": "[SFTI-FCQR] (cyclo(GFCQRSIPPICFPD); disulfide 3-11)", "values": [{"measurement": "IC50", "setting": "KLK5", "result": "2350 ± 721", "unit": "nM"}, {"measurement": "effect on calcium release by PAR-2 activating peptide", "setting": "human PAR-2; 1 μM SFTI-FCQR, PAR-2 activating peptide 100 nM", "result": "permissive for calcium release; also recorded: no effect"}, {"measurement": "effect on intracellular Ca^2+ of inhibitor alone", "setting": "human PAR-2; SFTI-FCQR 1 μM without agonist", "result": "no effect"}, {"measurement": "residual inhibition of recombinant KLK4 by tissue culture supernatant", "setting": "[1]; 1:5 dilution of supernatant, after a week of contact with prostate cancer cells", "result": "complete inhibition"}, {"measurement": "half-life at 1 μM", "setting": "[1]; 22Rv1 cell monolayers, 1 μM incubated with 22RV1 cells", "result": 117, "unit": "h"}, {"measurement": "half-life at 1 μM", "setting": "[1]; LNCaP cell monolayers, 1 μM incubated with LNCaP cells", "result": 119, "unit": "h"}, {"measurement": "half-life at 1 μM", "setting": "[1]; PC3 cell monolayers, 1 μM incubated with PC3 cells", "result": 89, "unit": "h"}, {"measurement": "IC50", "setting": "KLK4", "result": "7.97 ± 1.08", "unit": "nM"}, {"measurement": "Ki", "setting": "KLK4", "result": "3.59 ± 1.08", "unit": "nM"}, {"measurement": "IC50", "setting": "human matriptase", "result": "did not inhibit"}, {"measurement": "IC50", "setting": "human matriptase; read-out: IC50", "result": "> 10000", "unit": "nM"}]}]}
